Tests used:
Assay type in all cases: in vivo, human
test subjects [1] = assay: cream temperature sense and usability/skin feel with scented cotton versus no aroma; design: key to Absorption into skin / Youthfulness of skin / Stickiness of skin: five-point scale, 5 = I agree to 1 = I disagree; settings: for effect on temperature sense (raising or lowering) / perceived usability/skin feel, heavy-spreading or light-spreading / perceived usability/skin feel, moist or fresh: result in words; for Cream spreading (heavy) / Cream spreading (light) / Thickness of cream / Cream temp. sense (warm) / Cream temp. sense (cold) / Skin tightness / Absorption into skin / Firmness of skin / Non-stickiness of skin / Plumpness of skin / Skin freshness / Skin moistness / Skin smoothness / Skin suppleness / Stickiness of skin / Youthfulness of skin: average; for Cream spreading (heavy) / Cream spreading (light) / Thickness of cream / Absorption into skin / Firmness of skin / Non-stickiness of skin / Plumpness of skin / Skin freshness / Skin moistness / Skin smoothness / Skin suppleness / Stickiness of skin / Youthfulness of skin: five-point scale 5 to 1; for Cream temp. sense (warm): five-point scale 5 warm to 1 cold; for Cream temp. sense (cold): five-point scale, unscented cream, aroma smelled from cotton; for Skin tightness: five-point scale 5 (I agree) to 1 (I disagree)
Procedure: Just as with the survey conducted for temperature sense above, 17 or 18 women 20 to 24 years of age were selected for this test, cotton to which no perfume had been applied was affixed to one arm, and cotton to which perfume had been applied was affixed to the other arm, the arms were each coated with an unscented cream while the subjected smelled the aroma of the cotton, and the subjectively sensed temperature of the cream was assessed on a five-point scale in which 5 was warm, 4 was somewhat warm, 3 was “can't say,” 2 was somewhat cold, and 1 was cold.
Next, the correlation of aroma-induced cosmetic temperature sense, usability, and how the cosmetic actually felt on the skin, and the correlation with the image of the aroma were tested for the above-mentioned 24 different raw material perfumes. […] The aroma image was assessed on a seven-point scale from 0 to 6, while the usability/skin feel was assessed on a five-point scale from 5 (“I agree”) to 1 (“I disagree”). In addition to assessing usability, the impression of the aroma of the perfume was also assessed at the same time. To prevent the perfume from modifying the cream, a method was employed in which the perfume component was not directly added to the cream, but was instead applied to the cotton and smelled.
The following wording was selected for usability/skin feel. • How well a cream spreads: light to heavy • Absorption into the skin: fast to slow • Makes the skin look youthful?: yes to no • Makes the skin feel sticky?: yes to no • Makes the skin feel fresh?: yes to no • Makes the skin feel moist?: yes to no • Makes the skin feel non-sticky?: yes to no • Makes the skin feel smooth?: yes to no • Makes the skin feel supple?: yes to no • Makes the skin feel tight?: yes to no • Each of these was assessed on a five-point-scale. • For impressions of aroma, words that readily express the characteristics of an aroma, and four different words (natural, rich, tender, and sharp) were selected as generic terms from among sensory adjectives and emotional adjectives used to express the five senses. Each generic term encompasses specific aroma impression words. For example, “natural” encompasses impression expressions such as transparent, bright, natural, [3] pure, etc.; “rich” encompasses thick, sultry, mature, glossy, sexy, etc.; “tender” encompasses mild, sweet, gentle, graceful, etc; and “sharp” encompasses bracing, sharp, cool, etc. […] However, the words used to express usability/skin feel and the words used to express impressions of aroma are nothing more than examples, and [the present invention] is not limited to or by these words.

test subjects [2] = assay: subjectively sensed temperature of constant-temperature water on the hands while smelling an aroma; settings: 28° C. water, seven-point scale 7 hot to 1 extremely cold, 12 test subjects
Procedure: As a result of various research, the inventors discovered that the aroma given off by a specific perfume component can change the temperature subjectively sensed by a person (temperature sense). 12 test subjects put there hands into water held at a constant temperature, and the subjectively sensed temperature of the water was assessed on a seven-point scale in which 7 was hot, 6 was warm, 5 was somewhat warm, 4 was “can't say,” 3 was somewhat cold, 2 was cold, and 1 was extremely cold. The same 12 test subjects were asked to smell a peppermint aroma while once again putting their hands into water held at a constant temperature, and the subjectively sensed temperature of the water was assessed on a seven-point scale. The same experiment was repeated by raising the water temperature one degree at a time, and the testers looked for the temperature at which the assessment given under conditions of smelling the peppermint aroma was the same as the assessment given under conditions of no aroma at 28° C. […]
Also, to examine the change in temperature sense with and without aroma, the 12 test subjects put their hands in water with a temperature of 28° C., and the subjectively sensed temperature was assessed on a seven-point scale in the same manner as above. […]

test subjects [3] = assay: moisture content of the cheeks (corneometer) with scented cotton under nostrils; settings: room temperature 23 degrees, humidity 46%
Procedure: (§1) 12 female test subjects 20 to 24 years of age were asked to wash their face and attach a piece of scented cotton under their nostrils, which was left alone for a few minutes at a room temperature of 23 degrees and a humidity of 46%, after which the moisture content (corneometer) and sebum content (sebumeter) of the cheeks were measured.

test subjects [4] = assay: sebum content of the cheeks (sebumeter) with scented cotton under nostrils; settings: room temperature 23 degrees, humidity 46%
Procedure: as §1

test subjects [5] = assay: temperature sense of a space (clear boxes with and without aroma); settings: face put into box with aroma versus box without; FIG. 7; result in words
Text: Also, it is possible to change the temperature sense of a person located in a specific space by dispersing in that space, by volatilization or another such means, a perfume composition containing the above-mentioned perfume component capable of changing a person's temperature sense, and having the person smell the aroma. To test this, a clear box containing scented paper and another clear box containing unscented paper were readied, and an experiment was conducting by having a test subject put his or her face into each of the boxes and compare the temperature sense of the space. […] FIG. 5 is a graph of the assessment results, and it can be seen that the temperature sense of a person located in a space can be changed by aroma. When the perfume composition is dispersed in the space so that the person will smell it, the concentration of the aroma is preferably about 0.01 to 10 ppm. With peppermint oil, for instance, about 0.4 ppm is favorable. […] The test subject put his or her face into first one box and then the other and compared the temperature sense of the space. This experiment was conducted for three different aromas, namely, peppermint, bergamot, and vanillin. A lid 6 that could be opened and closed was provided to the top of each of the boxes 1 and 2. The test subjects and experiment conditions were the same as discussed above. […]

Compound | effect on temperature sense (raising or lowering) (test subjects [1]) | perceived usability/skin feel, heavy-spreading or light-spreading (test subjects [1]) | perceived usability/skin feel, moist or fresh (test subjects [1]) | Cream spreading (heavy) (test subjects [1]) | Cream spreading (light) (test subjects [1]) | Thickness of cream (test subjects [1]) | Cream temp. sense (warm) (test subjects [1]) | Cream temp. sense (cold) (test subjects [1]) | further results
COC(=O)c1ccccc1N=CCC(C)CCCC(C)(C)O (centres unmarked) [methyl-N-3,7-dimethyl-7-hydroxyoctylidene-anthranilate] | capable of lowering temperature sense | heavy-spreading usability/skin feel | fresh usability/skin feel | – | – | – | – | – | –
L-carvone | – | – | – | – | – | – | – | – | subjectively sensed temperature of the water, average assessment (test subjects [2]): 4
COc1cc(C=O)ccc1O [C, vanillin] | capable of raising temperature sense | – | – | 3.1 | 2.9 | 2.8 | 4.1 | 1.9 | Moisture content (test subjects [3]): 69.3 (increase); Sebum content (test subjects [4]): no difference attributable to aroma; sense of warmth or cold inside the box (test subjects [5]): gave a warm sensation
CC1COCc2cc3c(cc21)C(C)(C)C(C)C3(C)C (centres unmarked) [4,6,6,7,8,8-hexamethyl-1,3,4,6,7,8-hexahydrocyclopentabenzopyran] | capable of raising temperature sense | light-spreading usability/skin feel | moist usability/skin feel | – | – | – | – | – | –
CC(C=O)Cc1ccc(C(C)(C)C)cc1 (stereo not drawn) [B, 4-tert-butyl-α-methylhydroxycinnamic aldehyde] | capable of raising temperature sense | light-spreading usability/skin feel | moist usability/skin feel | 2.2 | 3.8 | 2.5 | 3.4 | 2.6 | Skin tightness (test subjects [1]): 3.3; Absorption into skin (test subjects [1]): 3.5; Firmness of skin (test subjects [1]): 2.9; Non-stickiness of skin (test subjects [1]): 2.5; Plumpness of skin (test subjects [1]): 2.2; Skin freshness (test subjects [1]): 3.2; Skin moistness (test subjects [1]): 3.9; Skin smoothness (test subjects [1]): 3.8; Skin suppleness (test subjects [1]): 3.4; Stickiness of skin (test subjects [1]): 3.1; Youthfulness of skin (test subjects [1]): 3.8
Cc1occc(=O)c1O [maltol] | capable of raising temperature sense | – | – | – | – | – | – | – | –
CC1(C)CCCC2(C)C1CCC1(C)OCCC12 (stereo not drawn) [3α,6,6,9α-tetramethyldodecahydronaphtho[2,1-b]furan] | capable of raising temperature sense | light-spreading usability/skin feel | moist usability/skin feel | – | – | – | – | – | –
Cc1ccc2c(c1)OCC(=O)CO2 [7-methyl-3,4-dihydro-(2H)-1,5-benzodioxepin-3-one] | capable of lowering temperature sense | light-spreading usability/skin feel | fresh usability/skin feel | – | – | – | – | – | –
CC(=O)/C=C/C1=C(C)CCCC1(C)C [β-ionone] | capable of raising temperature sense | light-spreading usability/skin feel | moist usability/skin feel | – | – | – | – | – | –
O=Cc1ccc2c(c1)OCO2 [heliotropine] | capable of raising temperature sense | light-spreading usability/skin feel | moist usability/skin feel | – | – | – | – | – | –
CC(C)[C@@H]1CC[C@@H](C)C[C@H]1O [L-menthol] | – | – | – | – | – | – | – | – | subjectively sensed temperature of the water, average assessment (test subjects [2]): 4.125
CC1=CC(C)C(C=O)CC1 (centres unmarked) [E, 2,4-dimethyl-3-cyclohexenyl carboxyaldehyde] | capable of lowering temperature sense | light-spreading usability/skin feel | fresh usability/skin feel | 2.7 | 3.3 | 3.1 | 2.5 | 3.5 | Skin tightness (test subjects [1]): 2.4; Absorption into skin (test subjects [1]): 2.9; Firmness of skin (test subjects [1]): 2.8; Non-stickiness of skin (test subjects [1]): 2.6; Plumpness of skin (test subjects [1]): 2.3; Skin freshness (test subjects [1]): 3.1; Skin moistness (test subjects [1]): 3.3; Skin smoothness (test subjects [1]): 3.8; Skin suppleness (test subjects [1]): 3.4; Stickiness of skin (test subjects [1]): 3.2; Youthfulness of skin (test subjects [1]): 3.7
CCCCCCCC1CCC(=O)O1 (centres unmarked) [G, γ-undecalactone] | capable of raising temperature sense | – | – | 2.2 | 3.8 | 2.1 | 3.2 | 2.8 | –
